Assay results from the supplement of paper PMC3937590.

Experiments:
Test in all cases: -log10 GI50 (growth inhibition 50%) (-log10(M)); higher = more potent growth inhibition
SUM149PT = system: SUM149PT
Procedure, shortened: (§1)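 A value carrying a < qualifier equals the top dose tested. Each compound was tested in triplicate on breast cancer cell lines for 72 hours at nine doses in 1:5 serial dilution, using a luminescence read-out against a time-zero plate. Nonlinear least squares fitting of a Gompertz curve gave GI50, the molar concentration causing the set level of growth inhibition, which is reported as its negative logarithm. The logarithm is base 10.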

HCC3153 = system: HCC3153
Procedure, shortened: as §1

MCF10A = system: MCF10A
Procedure, shortened: as §1

SUM225CWN = system: SUM225CWN
Procedure, shortened: as §1

SUM1315MO2 = system: SUM1315MO2
Procedure, shortened: as §1

MCF10F = system: MCF10F
Procedure, shortened: as §1

MDAMB134VI = system: MDAMB134VI
Procedure, shortened: as §1

HCC1395 = system: HCC1395
Procedure, shortened: as §1

HCC1569 = system: HCC1569
Procedure, shortened: as §1

HCC202 = system: HCC202
Procedure, shortened: as §1

Structure (SMILES) | -log10 GI50 (HCC3153) | -log10 GI50 (MDAMB134VI) | -log10 GI50 (HCC1395) | -log10 GI50 (HCC1569) | -log10 GI50 (HCC202) | -log10 GI50 (SUM149PT) | -log10 GI50 (MCF10A) | -log10 GI50 (SUM225CWN) | -log10 GI50 (SUM1315MO2) | -log10 GI50 (MCF10F)
CCCCCN(C)CCC(O)(P(=O)(O)O)P(=O)(O)O [Ibandronate sodium] | 4.05 | 4.17 | 4.89 | 4.21 | – | 3.76 | 3.39 | 3.3 | 4.29 | 3.81
Cc1cncc2cccc(S(=O)(=O)N3CCCN(C(=O)CN)C[C@@H]3C)c12 [Glycyl H1152] | < 4.48 | 5.9 | 5.05 | 5.21 | – | 4.57 | 5.28 | < 4.18 | 5.15 | < 4.18
O=C(c1ccc(Nc2nccc(-c3cc4ccccc4s3)n2)cc1)N1CCC(N2CCCC2)CC1 [IKK 16] | 5.48 | 5.26 | 5.86 | 5.48 | 5.1 | 5.82 | 5.56 | 5.51 | 5.81 | 5.37
CS(=O)(=O)CCNCc1ccc(-c2ccc3ncnc(Nc4ccc(OCc5cccc(F)c5)c(Cl)c4)c3c2)o1 [Lapatinib] | < 4.78 | < 4.78 | < 4.78 | 5.47 | 6.12 | – | < 4.78 | 6.16 | 4.82 | 4.94
CO[C@H]1C[C@@H]2CC[C@@H](C)[C@@](O)(O2)C(=O)C(=O)N2CCCC[C@H]2C(=O)O[C@H]([C@H](C)C[C@@H]2CC[C@@H](OC(=O)C(C)(CO)CO)[C@H](OC)C2)CC(=O)[C@H](C)/C=C(\C)[C@@H](O)[C@@H](OC)C(=O)[C@H](C)C[C@H](C)/C=C/C=C/C=C/1C [Temsirolimus] | 4.63 | 6.89 | 4.83 | 5.49 | – | 5.21 | 6.38 | 5.6 | 6.06 | 6.11
COc1cc2c(Nc3ccc(NC(=O)c4ccccc4)cc3)ncnc2cc1OCCCN1CCOCC1 | < 4 | 5.03 | 5.3 | 5.69 | – | < 4 | < 4.48 | 4.98 | < 4.3 | < 4
O=S(=O)(CC1CS1)c1ccc(Oc2ccccc2)cc1 (configuration not stated) [SB-3CT] | < 4 | < 4 | 4.03 | < 3.78 | – | 4.27 | 4.05 | < 4 | 4.02 | < 4
O=C(/C=C/C#Cc1cccc(NS(=O)(=O)c2ccccc2)c1)NO [Oxamflatin] | 5.82 | 6.18 | 5.67 | 5.88 | – | 6.23 | 6.14 | 6.06 | 5.64 | 5.41
CSCC[C@H](NC(=O)[C@H](Cc1ccccc1)NC[C@@H](NC[C@@H](N)CS)C(C)C)C(=O)O [FTase inhibitor I] | < 4.48 | < 4.48 | < 4.18 | < 4.18 | – | 4.76 | < 4.48 | 4.49 | < 4.18 | < 4.48
O=c1cc(-c2ccccc2)oc2cc(O)c(O)c(O)c12 [Baicalein] | 4.69 | 4.07 | 4.73 | 4.33 | 4.41 | 4.29 | 4.71 | 4.43 | 4.55 | < 3.78
CC(/C=C/C(=O)NO)=C\[C@@H](C)C(=O)c1ccc(N(C)C)cc1 [Trichostatin A] | 4.62 | 5.2 | 4.5 | 5.06 | 6.4 | 5.14 | 4.82 | 4.86 | 4.31 | 4.22
CCCC(CCC)C(=O)O [Valproic acid] | 2.55 | 3.12 | 2.47 | 2.77 | – | 2.86 | 2.97 | 2.76 | 2.62 | 2.42
COc1ncc(-c2ccc3nccc(-c4ccnnc4)c3c2)cc1NS(=O)(=O)c1ccc(F)cc1F | 7.38 | 7.97 | 7.31 | 7.75 | 9.25 | 7.64 | 8.1 | 8.79 | 8.02 | 8.67
COc1cc(Nc2c(C#N)cnc3cc(OCCCN4CCN(C)CC4)c(OC)cc23)c(Cl)cc1Cl [Bosutinib] | 5.18 | < 4 | 5.93 | 5.76 | – | 6.13 | 5.85 | 5.81 | 6.12 | 5.75
O=C1NC(=O)/C(=C/c2ccc(-c3ccc(F)cc3O)o2)S1 | < 4.18 | 4.48 | 4.22 | 4.54 | – | 5 | < 4.18 | 5.47 | 4.92 | < 4.48
Nc1[nH]nc2nnc(-c3c(-c4ccccc4)nn4ccccc34)cc12 | < 4.48 | < 4 | 4.56 | < 4 | – | 4.73 | < 4.48 | 4.62 | 4.71 | 4.09
Cc1cc(C(=O)N2CCN(c3cccc(Cl)c3)CC2)n(-c2ccccc2)n1 [XRP44X] | 5.74 | 6.09 | 6.03 | 4.6 | – | 5.88 | 6.55 | 5.5 | 6.14 | < 3.88
C[C@]12O[C@H](C[C@]1(O)CO)n1c3ccccc3c3c4c(c5c6ccccc6n2c5c31)CNC4=O [Lestaurtinib] | 5.06 | 6.33 | 6.91 | 6.19 | – | 7.12 | 6.26 | 6.03 | 7.45 | 5.72
COc1cccc(-c2cc(=O)c3ccccc3o2)c1N | 4.1 | < 4 | < 4 | < 4.3 | – | 4.66 | < 4.3 | 4.64 | < 4.3 | < 4.3
CCNCCCCNCCCCNCCCCNCCCCNC/C=C/CNCCCCNCCCCNCCCCNCCCCNCC | 6.72 | 6.38 | 6.3 | 4.74 | 6.28 | 6.53 | 5.9 | 5.49 | 5.69 | 5.96
O=C(CCCCCCC(=O)Nc1ccccc1)NO [Vorinostat] | 3.77 | 4.4 | 3.49 | 3.98 | 5.03 | 4.02 | 3.68 | 3.84 | 3.77 | 3.08
CO[C@H]1C[C@@H]2CC[C@@H](C)[C@@](O)(O2)C(=O)C(=O)N2CCCC[C@H]2C(=O)O[C@H]([C@H](C)C[C@@H]2CC[C@@H](OCCO)[C@H](OC)C2)CC(=O)[C@H](C)/C=C(\C)[C@@H](O)[C@@H](OC)C(=O)[C@H](C)C[C@H](C)/C=C/C=C/C=C/1C [Everolimus] | 4.85 | 7.27 | 4.98 | 5.15 | – | 5.42 | 6.08 | 7.62 | 5.23 | 6
Oc1cc(-c2nc(-c3ccccc3)[nH]c2-c2ccncc2)ccc1Cl | < 4.48 | 4.85 | 4.82 | 4.77 | – | 5.14 | 4.92 | 5.15 | 4.69 | 4.92

More lines, main results first:

-log10 GI50 (HCC3153) | -log10 GI50 (MDAMB134VI) | -log10 GI50 (HCC1395) | -log10 GI50 (HCC1569) | -log10 GI50 (HCC202) | Structure (SMILES) | -log10 GI50 (SUM149PT) | -log10 GI50 (MCF10A) | -log10 GI50 (SUM225CWN) | -log10 GI50 (SUM1315MO2) | -log10 GI50 (MCF10F)
6.19 | < 4.48 | < 4.48 | 6.33 | – | Cn1c(=O)n(-c2ccc(C(C)(C)C#N)cc2)c2c3cc(-c4cnc5ccccc5c4)ccc3ncc21 [BEZ235] | 6.5 | 7.26 | 6.68 | 6.49 | < 4.48
4.8 | 4.74 | 5.03 | 4.79 | – | NS(=O)(=O)c1ccc(Nc2nc(OCC3CCCCC3)c3[nH]cnc3n2)cc1 [NU6102] | 5.14 | 5.32 | 4.3 | 5.42 | 5
< 4.3 | 6.2 | 4.42 | < 4.3 | – | Cn1cnc2c(F)c(Nc3ccc(Br)cc3Cl)c(C(=O)NOCCO)cc21 [AZD6244] | 6.32 | 6.71 | < 4.3 | 5.57 | 5.62
6.53 | 7.05 | 6.56 | 6.81 | – | Cc1[nH]c2ccccc2c1CCNCc1ccc(/C=C/C(=O)NO)cc1 [LBH589] | 6.6 | 6.84 | 6.96 | 6.62 | 6.04
– | 5.44 | 5.93 | 6.56 | – | CN(C)C/C=C/C(=O)Nc1cc2c(Nc3ccc(F)c(Cl)c3)ncnc2cc1O[C@H]1CCOC1 [BIBW2992] | 7.13 | 7.49 | 8.03 | 6.79 | 7.01
6.44 | 7.06 | 5.73 | 4.86 | – | NS(=O)(=O)OC[C@@H]1C[C@@H](n2ccc3c(N[C@H]4CCc5ccccc54)ncnc32)C[C@@H]1O [MLN4924] | 6.73 | 6.31 | 5.28 | 5.67 | 6.2
< 4.48 | 4.32 | 4.69 | < 4.3 | – | CC(C(C)N1CC(=O)NC(=O)C1)N1CC(=O)NC(=O)C1 (configuration not stated) [ICRF-193] | 5.59 | 7.07 | < 4.48 | 6.35 | < 4.3
4.72 | 6.03 | 5.21 | 5.68 | – | Cc1cc(Nc2cc(N3CCN(C)CC3)nc(Sc3ccc(NC(=O)C4CC4)cc3)n2)n[nH]1 [VX-680] | 5.07 | 6.04 | 4.76 | 5.8 | 4.99
6.84 | 6.63 | 6.64 | 6.68 | – | CC(C)C[C@@H](C=O)NC(=O)[C@H](CC(C)C)NC(=O)[C@H](CC(C)C)NC(=O)OCc1ccccc1 [MG-132] | 6.8 | 7.21 | 7.01 | 6.92 | 7.14
< 3.88 | < 3.88 | < 3.88 | 4.33 | – | N#Cc1c(-c2ccccc2)cc(-c2cc(Br)ccc2O)[nH]c1=O [TCS PIM-11] | 4.49 | 4.57 | 4.53 | 4.75 | < 3.88
